# Inconclusive results and toxic doses are left out.
# System: L1210 leukemia ip in BDF1 mice, survival T/C
# Experiment: NCI In Vivo Anticancer Drug Screen. Data for tumor model L1210 Leukemia (intraperitoneal) in B6D2F1 (BDF1) mice
# Details: endpoint: mean survival time, higher = longer survival
# Procedure, shortened: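 Read-out is survival time, reported as the treated-group measurement over the vehicle-control measurement.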
# [1] = dose: 25.0 mg/kg/injection, schedule: Q04DX003 (ip), vehicle: Klucel (hydroxypropylcellulose) (HPC)
# [2] = dose: 50.0 mg/kg/injection, schedule: Q04DX003 (ip), vehicle: Klucel (hydroxypropylcellulose) (HPC)
# [3] = dose: 100.0 mg/kg/injection, schedule: Q01DX001 (ip), vehicle: Klucel (hydroxypropylcellulose) (HPC)
# [4] = dose: 100.0 mg/kg/injection, schedule: Q04DX003 (ip), vehicle: Klucel (hydroxypropylcellulose) (HPC)
# [5] = dose: 200.0 mg/kg/injection, schedule: Q01DX001 (ip), vehicle: Klucel (hydroxypropylcellulose) (HPC)
# [6] = dose: 200.0 mg/kg/injection, schedule: Q04DX003 (ip), vehicle: Klucel (hydroxypropylcellulose) (HPC)
# [7] = dose: 400.0 mg/kg/injection, schedule: Q01DX001 (ip), vehicle: Klucel (hydroxypropylcellulose) (HPC)
# [8] = dose: 400.0 mg/kg/injection, schedule: Q04DX003 (ip), vehicle: Klucel (hydroxypropylcellulose) (HPC)
# [9] = dose: 50.0 mg/kg/injection, schedule: Q01DX009 (ip), vehicle: saline
# [10] = dose: 100.0 mg/kg/injection, schedule: Q01DX009 (ip), vehicle: Klucel (hydroxypropylcellulose) (HPC)
# [11] = dose: 200.0 mg/kg/injection, schedule: Q01DX009 (ip), vehicle: Klucel (hydroxypropylcellulose) (HPC)
# [12] = dose: 400.0 mg/kg/injection, schedule: Q01DX009 (ip), vehicle: Klucel (hydroxypropylcellulose) (HPC)
# [13] = dose: 100.0 mg/kg/injection, schedule: Q04DX003 (ip), vehicle: saline with Tween-80
# [14] = dose: 100.0 mg/kg/injection, schedule: Q01DX001 (ip), vehicle: carboxymethylcellulose (CMC)
# [15] = dose: 200.0 mg/kg/injection, schedule: Q01DX001 (ip), vehicle: carboxymethylcellulose (CMC)
# [16] = dose: 400.0 mg/kg/injection, schedule: Q01DX001 (ip), vehicle: carboxymethylcellulose (CMC)
structure (smiles),measurement,setting,value
CCCCOB(CCl)OCCCC,T/C,"dose: 6.25 mg/kg/injection, schedule: Q04DX003 (ip), vehicle: saline sonified",103 % of control
same,T/C,"dose: 12.5 mg/kg/injection, schedule: Q04DX003 (ip), vehicle: saline sonified",97 % of control
same,T/C,"dose: 25.0 mg/kg/injection, schedule: Q04DX003 (ip), vehicle: saline sonified",100 % of control
CCOC(=O)c1nc(N)nc(N)c1-c1ccc(Cl)cc1,T/C,"dose: 25.0 mg/kg/injection, schedule: Q01DX001 (ip), vehicle: saline with Tween-80",98 % of control
same,T/C,"dose: 50.0 mg/kg/injection, schedule: Q01DX001 (ip), vehicle: saline with Tween-80",104 % of control
same,T/C,"dose: 100.0 mg/kg/injection, schedule: Q01DX001 (ip), vehicle: saline with Tween-80",102 % of control
CCOC(=O)C1(C(=O)OCC)CC(=O)c2c(OC)ccc(OC)c2C1,T/C,"dose: 12.5 mg/kg/injection, schedule: Q04DX003 (ip), vehicle: Klucel (hydroxypropylcellulose) (HPC)",94 % of control
same,T/C,[1],105 % of control
same,T/C,[2],98 % of control
same,T/C,[3],98 % of control
same,T/C,[4],95 % of control
same,T/C,[5],98 % of control
same,T/C,[6],103 % of control
same,T/C,[7],106 % of control
same,T/C,[8],111 % of control
O=C(NC/C=C/Br)Nc1c2ccccc2nc2ccccc12,T/C,"dose: 12.5 mg/kg/injection, schedule: Q01DX009 (ip), vehicle: saline",102 % of control
same,T/C,"dose: 25.0 mg/kg/injection, schedule: Q01DX009 (ip), vehicle: saline",102 % of control
same,T/C,[9],109 % of control
COC(=O)C1C2CC/C=C\CCC21 (stereo unspecified),T/C,[10],91 % of control
same,T/C,[11],87 % of control
same,T/C,[12],91 % of control
CCC1CCCCN1C (stereo unspecified),T/C,"dose: 25.0 mg/kg/injection, schedule: Q01DX009 (ip), vehicle: acetone",96 % of control
same,T/C,"dose: 50.0 mg/kg/injection, schedule: Q01DX009 (ip), vehicle: acetone",94 % of control
same,T/C,"dose: 100.0 mg/kg/injection, schedule: Q01DX009 (ip), vehicle: acetone",100 % of control
CCCCCc1cc[n+](CC(O)c2ccccc2)cc1 (stereo unspecified),T/C,"dose: 100.0 mg/kg/injection, schedule: Q01DX001 (ip), vehicle: saline",94 % of control
CCOC(=O)C1CNc2ccccc2N1 (stereo unspecified),T/C,"dose: 25.0 mg/kg/injection, schedule: Q01DX009 (ip), vehicle: saline with Tween-80",93 % of control
same,T/C,"dose: 50.0 mg/kg/injection, schedule: Q01DX009 (ip), vehicle: saline with Tween-80",110 % of control
same,T/C,[13],105 % of control
COc1cc(C=Nc2ccc(C(=O)O)cc2)ccc1N(CCCl)CCCl,T/C,"dose: 6.0 mg/kg/injection, schedule: Q01DX001 (ip), vehicle: carboxymethylcellulose (CMC)",107 % of control
same,T/C,"dose: 12.0 mg/kg/injection, schedule: Q01DX015 (ip), vehicle: carboxymethylcellulose (CMC)",109 % of control
same,T/C,"dose: 12.5 mg/kg/injection, schedule: Q01DX001 (ip), vehicle: carboxymethylcellulose (CMC)",112 % of control
CCC(N)(CC)C(=O)O,T/C,[9],102 % of control
same,T/C,"dose: 100.0 mg/kg/injection, schedule: Q01DX009 (ip), vehicle: saline",98 % of control
same,T/C,"dose: 200.0 mg/kg/injection, schedule: Q01DX009 (ip), vehicle: saline",95 % of control
O=C(O)C(Oc1ccc(Cl)cc1Cl)C(Oc1ccc(Cl)cc1Cl)C(=O)O (stereo unspecified),T/C,"dose: 100.0 mg/kg/injection, schedule: Q04DX002 (ip), vehicle: carboxymethylcellulose (CMC)",98 % of control
same,T/C,"dose: 200.0 mg/kg/injection, schedule: Q04DX002 (ip), vehicle: carboxymethylcellulose (CMC)",88 % of control
same,T/C,"dose: 400.0 mg/kg/injection, schedule: Q04DX002 (ip), vehicle: Klucel (hydroxypropylcellulose) (HPC)",155 % of control
same,T/C,"dose: 400.0 mg/kg/injection, schedule: Q04DX002 (ip), vehicle: carboxymethylcellulose (CMC)",92 % of control
same,T/C,"dose: 800.0 mg/kg/injection, schedule: Q04DX002 (ip), vehicle: carboxymethylcellulose (CMC)",98 % of control
CCC(CCl)NC(=O)N(N=O)C(CC)CCl (stereo unspecified),T/C,"dose: 16.0 mg/kg/injection, schedule: Q01DX001 (ip), vehicle: carboxymethylcellulose (CMC)",96 % of control
same,T/C,"dose: 31.0 mg/kg/injection, schedule: Q01DX001 (ip), vehicle: carboxymethylcellulose (CMC)",102 % of control
same,T/C,"dose: 62.0 mg/kg/injection, schedule: Q01DX001 (ip), vehicle: carboxymethylcellulose (CMC)",95 % of control
same,T/C,"dose: 125.0 mg/kg/injection, schedule: Q01DX001 (ip), vehicle: carboxymethylcellulose (CMC)",101 % of control
same,T/C,"dose: 250.0 mg/kg/injection, schedule: Q01DX001 (ip), vehicle: carboxymethylcellulose (CMC)",91 % of control
same,T/C,"dose: 375.0 mg/kg/injection, schedule: Q01DX001 (ip), vehicle: carboxymethylcellulose (CMC)",91 % of control
same,T/C,"dose: 500.0 mg/kg/injection, schedule: Q01DX001 (ip), vehicle: carboxymethylcellulose (CMC)",101 % of control
same,T/C,"dose: 750.0 mg/kg/injection, schedule: Q01DX001 (ip), vehicle: carboxymethylcellulose (CMC)",91 % of control
same,T/C,"dose: 1000.0 mg/kg/injection, schedule: Q01DX001 (ip), vehicle: carboxymethylcellulose (CMC)",93 % of control
same,T/C,"dose: 1500.0 mg/kg/injection, schedule: Q01DX001 (ip), vehicle: carboxymethylcellulose (CMC)",98 % of control
O=C(O)/C=C\Cc1cccc(=O)[nH]1,T/C,"dose: 50.0 mg/kg/injection, schedule: Q01DX001 (ip), vehicle: Klucel (hydroxypropylcellulose) (HPC)",94 % of control
same,T/C,[3],95 % of control
same,T/C,[5],97 % of control
CSc1ccc(OC(=O)Nc2ccc(C)cc2[N+](=O)[O-])cc1,T/C,"dose: 50.0 mg/kg/injection, schedule: Q01DX009 (ip), vehicle: Klucel (hydroxypropylcellulose) (HPC)",90 % of control
same,T/C,[10],90 % of control
same,T/C,[4],97 % of control
same,T/C,[11],100 % of control
same,T/C,[6],99 % of control
same,T/C,[8],97 % of control
O=[N+]([O-])c1cccc2c1/C(=N/O)c1ccccc1-2,T/C,[14],101 % of control
same,T/C,[15],92 % of control
same,T/C,[16],98 % of control
CC(C)CCc1c(N)nc(N)nc1N,T/C,[1],93 % of control
same,T/C,[2],96 % of control
Nc1ccc(Cl)cc1,T/C,[14],98 % of control
same,T/C,[15],101 % of control
same,T/C,[16],110 % of control
O=P(CCCCl)(OCCCCl)OCCCCl,T/C,"dose: 100.0 mg/kg/injection, schedule: Q04DX003 (ip), vehicle: saline",104 % of control
same,T/C,"dose: 200.0 mg/kg/injection, schedule: Q04DX003 (ip), vehicle: saline",114 % of control
same,T/C,"dose: 400.0 mg/kg/injection, schedule: Q04DX003 (ip), vehicle: saline",96 % of control
CN(CCO)c1c(Cl)c(=O)oc2ccc(Cl)cc12,T/C,[13],90 % of control
same,T/C,"dose: 200.0 mg/kg/injection, schedule: Q04DX003 (ip), vehicle: saline with Tween-80",92 % of control
same,T/C,"dose: 400.0 mg/kg/injection, schedule: Q04DX003 (ip), vehicle: saline with Tween-80",89 % of control
CCOC(=O)c1c(C)c2c(n1C)CCC(CCC(C)=O)C2=O (stereo unspecified),T/C,[14],104 % of control
same,T/C,[15],97 % of control
same,T/C,[16],93 % of control
COc1ccc(/C=C(\C#N)c2ccc([N+](=O)[O-])cc2)cc1OC,T/C,"dose: 100.0 mg/kg/injection, schedule: Q04DX002 (ip), vehicle: saline with Tween-80",90 % of control
same,T/C,"dose: 200.0 mg/kg/injection, schedule: Q04DX002 (ip), vehicle: saline with Tween-80",90 % of control
same,T/C,"dose: 400.0 mg/kg/injection, schedule: Q04DX002 (ip), vehicle: saline with Tween-80",90 % of control
C=CCNC(=S)Nc1ccc(O)cc1,T/C,[10],91 % of control
same,T/C,[11],97 % of control
same,T/C,[12],96 % of control
CN(C(=O)C1(C)CC2C=CC1C2)c1ccccc1 (stereo unspecified),T/C,[3],100 % of control
same,T/C,[5],102 % of control
same,T/C,[7],97 % of control
Cc1ccc(/C=N/N)s1,T/C,"dose: 100.0 mg/kg/injection, schedule: Q04DX003 (ip), vehicle: other",92 % of control
same,T/C,"dose: 200.0 mg/kg/injection, schedule: Q04DX003 (ip), vehicle: other",99 % of control

# Source: PubChem BioAssay AID248 (DTP/NCI, 2004)
